For one data set, the target named is T1, CYP2C19 (Homo sapiens, UniProt P33261).
T1 construct: from tissue; host or cells: human liver microsomes
In words: Inhibition of human liver microsomal cytochrome P450 isoenzyme CYP2C19. The class given is in vitro ADME. To be noted: human liver microsomes. The procedure:
Objective: The inhibitory effect of the test compound on the activity of human liver microsomal cytochrome P450 isoenzymes (CYP1A2, CYP2C9, CYP2C19, CYP2D6 and CYP3A4) was determined. […]

Data set [1] in a line: Metabolic stability in liver microsomes of beagle dogs. The class given is in vitro ADME. To be noted: dog. The procedure: Objective: The metabolic stability of the tested compound of formula (I) in liver microsomes of rats, beagle dogs and cynomolgus monkeys was determined. […]
Data set [2] is described as follows: Experiment on cytotoxicity (CellTiter-Glo, 3 days). The format is cell-based. To be noted: 3 days incubation, read-out: 50% cytotoxic concentration (CC50). The procedure:
• 1. The compound was diluted with DMSO (dimethyl sulfoxide) in a 3-fold gradient for 9 concentrations, and added into a 96-well plate in duplicate. The compound concentration was 200-fold of the final test concentration. • 2. The cells were rinsed with PBS (phosphate buffered saline) once, added with 0.25% trypsin and digested for about 2-5 min in a 37° C., 5% CO2 incubator. Then the digestion was terminated with a cell culture medium and the cells were dispersed into single cells by pipetting with a pipettor. • 3. The cell density was counted with a cell counter, and adjusted to the required density with the medium. • 4. The cells were added into a 96-well plate that had been added with the compound. The final concentration of DMSO in each well was 0.5%. Wells containing 0.5% DMSO were used as non-toxic negative controls, and wells containing the cell culture medium were used as 100% cytotoxicity controls. Then the cell plate was incubated in a 37° C., 5% CO2 cell incubator for 3 days. • 5. The chemiluminescence signal (RLU, relative chemiluminescence unit) of each well in the cell plate was detected with the cell viability detection kit CellTiter-Glo using the multi-functional microplate reader Envision, with instructions on the kit followed. • 6. The raw data (RLU) were substituted into the following formula to calculate the cell viability of each well (cell viability %): […]

Each structure is given as a SMILES string. pIC50: −log10 of the molar value.

T1 sequence (P33261 whole entry): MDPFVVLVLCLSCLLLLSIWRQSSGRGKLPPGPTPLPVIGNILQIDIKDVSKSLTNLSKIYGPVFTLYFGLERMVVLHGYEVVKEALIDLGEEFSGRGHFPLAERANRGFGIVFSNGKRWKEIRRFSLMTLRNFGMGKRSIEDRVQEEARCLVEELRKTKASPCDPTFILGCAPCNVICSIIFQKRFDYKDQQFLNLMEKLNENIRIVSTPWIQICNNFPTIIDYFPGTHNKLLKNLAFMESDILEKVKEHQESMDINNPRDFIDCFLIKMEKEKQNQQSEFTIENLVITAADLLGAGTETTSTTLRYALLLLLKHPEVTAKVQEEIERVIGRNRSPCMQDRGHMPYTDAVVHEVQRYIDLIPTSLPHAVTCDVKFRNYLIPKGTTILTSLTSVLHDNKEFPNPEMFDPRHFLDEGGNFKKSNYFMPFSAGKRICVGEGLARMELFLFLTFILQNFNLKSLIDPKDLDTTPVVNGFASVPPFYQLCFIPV

Consider `CC1(NC(=O)C(=O)c2c(Cl)c(C(=O)Nc3cc(F)c(F)c(F)c3)c3n2CCC3)CCC(CC(=O)O)CC1` (centres unmarked) [Compound of formula (I)], for which the pIC50 on CYP2C19 was less than 4.30. Besides, the intrinsic metabolic clearance (microsomal CLint) at 1 μM in data set [1] (beagle, microsomes) was less than 9.6 µL/min/mg. The molecule also gave a CLint scaled at 1 μM in data set [1] (Beagle dogs liver microsomes) of less than 0.828 L/h/kg. This molecule also showed a half-life at 1 μM in data set [1] (Beagle dogs liver microsomes, 1 μM compound, 0.5 mg/mL) greater than 2.42 h. The CC50 at 3 days in data set [2] is greater than 50 µM.

These data come from US20230026869A1, “CRYSTAL FORM OF NUCLEOPROTEIN INHIBITOR AND USE THEREOF” (CHIA TAI TIANQING PHARMACEUTICAL GROUP CO., LTD., priority 2019, published 2023).
